Experimental data published in patent US9994552B2, “Compositions useful for treating disorders related to kit” (BLUEPRINT MEDICINES CORPORATION, priority 2013, dated 2018).

Legend:
[1] = target: wild type Kit (Homo sapiens (Human), UniProt P10721); test: Kit wild type assay at Km (Caliper electrophoretic mobility shift); assay type: biochemical; details: wild type Kit 2 nM, 400 uM ATP (Km), 1 uM Srctide, 25 C, 90 minutes; read-out: INH-KITWT ENZ-KM IC50 (nM) (Num)
Protocol: (§1) In order to assess the activity of chemical compounds against the relevant kinase of interest, the Caliper LifeSciences electrophoretic mobility shift technology platform is used. Fluorescently labeled substrate peptide is incubated in the presence of kinase and ATP so that a […] proportion of the peptide is phosphorylated. At the end of the reaction, the mix of phosphorylated (product) and non-phosphorylated (substrate) peptides are passed through the microfluidic system of the Caliper EZ Reader 2, under an applied potential difference. The presence of the phosphate group on the product peptide provides a difference in mass and charge between those of the substrate peptide, resulting in a separation of the substrate and product pools in the sample. As the pools pass a LEDS within the instrument, these pools are detected and resolved as separate peaks. The ratio between these peaks therefore reflects the activity of the chemical matter at that concentration in that well, under those conditions.
(§2) The reaction was stopped by the addition of 70 ul of Stop buffer (100 mM HEPES pH 7.5, 0.015% Brij 35, 35 mM EDTA and 0.2% of Coating Reagent 3 (Caliper Lifesciences)). The plate was then read on a Caliper EZReader 2 (protocol settings: −1.9 psi, upstream voltage −700, downstream voltage −3000, post sample sip 35 s).

[2] = target: D816V Kit (Homo sapiens (Human), UniProt P10721, D816V); test: Kit D816V assay at Km (Caliper electrophoretic mobility shift); assay type: biochemical; details: for IC50: D816V Kit 0.5 nM, 15 uM ATP (Km), 1 uM Srctide, 25 C, 90 minutes, read-out: INH-KITD816V ENZ-KM IC50 (nM) (Num); for times more potent against the D816V mutant than against the wild-type Kit: D816V Kit versus wild-type Kit, enzyme assays at Km
D816V Kit, sequence (P10721 26-976 D816V): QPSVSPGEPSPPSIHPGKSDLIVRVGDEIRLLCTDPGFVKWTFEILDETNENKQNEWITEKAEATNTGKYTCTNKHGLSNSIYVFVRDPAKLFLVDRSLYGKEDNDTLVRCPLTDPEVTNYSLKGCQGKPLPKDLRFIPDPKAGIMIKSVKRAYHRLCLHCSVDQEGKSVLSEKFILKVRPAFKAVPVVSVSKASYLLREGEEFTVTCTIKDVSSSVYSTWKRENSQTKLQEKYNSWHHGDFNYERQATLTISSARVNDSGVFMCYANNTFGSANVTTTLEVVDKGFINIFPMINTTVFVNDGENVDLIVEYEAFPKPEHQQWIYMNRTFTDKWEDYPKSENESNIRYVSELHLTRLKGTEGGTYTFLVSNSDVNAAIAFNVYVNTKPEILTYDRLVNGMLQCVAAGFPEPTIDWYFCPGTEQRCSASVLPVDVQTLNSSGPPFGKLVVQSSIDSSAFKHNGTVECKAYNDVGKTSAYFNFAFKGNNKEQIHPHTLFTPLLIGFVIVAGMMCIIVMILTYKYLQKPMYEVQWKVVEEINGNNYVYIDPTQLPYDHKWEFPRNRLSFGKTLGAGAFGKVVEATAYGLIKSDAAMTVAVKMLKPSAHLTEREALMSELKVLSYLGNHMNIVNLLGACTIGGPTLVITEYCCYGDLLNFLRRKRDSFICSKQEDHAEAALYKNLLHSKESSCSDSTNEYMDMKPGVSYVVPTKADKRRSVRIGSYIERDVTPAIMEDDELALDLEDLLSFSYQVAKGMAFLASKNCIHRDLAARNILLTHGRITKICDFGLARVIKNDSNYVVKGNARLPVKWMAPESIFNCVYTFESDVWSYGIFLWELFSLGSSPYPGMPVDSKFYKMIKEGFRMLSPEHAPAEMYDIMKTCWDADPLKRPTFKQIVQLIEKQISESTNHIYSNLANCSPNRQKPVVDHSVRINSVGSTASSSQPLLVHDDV
Protocol: as §1, §2

wild type Kit, sequence (P10721 26-976): as the sequence (P10721 26-976 D816V) above, with V791D counted along it

| SMILES | IC50 [1] | IC50 [2] | times more potent against the D816V mutant than against the wild-type Kit [2] |
| --- | --- | --- | --- |
| COc1cc2ncnc(N3CCN(c4ncc(NCc5ccccc5C)cn4)CC3)c2cc1OC [Compound 54] | 100 to 1000 nM | 10 to 100 nM |  |
| COc1cc2ncnc(N3CCN(c4ncc(NCc5cccc(C)c5)cn4)CC3)c2cc1OC [Compound 55] | > 1000 nM | 10 to 100 nM |  |
| COc1cc2ncnc(N3CCN(c4ncc(NC(C)c5ccccc5)cn4)CC3)c2cc1OC (centres unmarked) [Compound 56] | > 1000 nM | 10 to 100 nM |  |
| COc1cccc(Cc2cnc(N3CCN(c4ncnc5cc(OC)c(OC)cc45)CC3)nc2)c1 [Compound 57] | 11 to 100 nM | < 1 nM | at least 100 times |
| COc1ccc(Cc2cnc(N3CCN(c4ncnc5cc(OC)c(OC)cc45)CC3)nc2)cc1 [Compound 58] | 11 to 100 nM | 1.01 to 10 nM |  |
| COc1cc2ncnc(N3CCN(c4ncc(O[C@H](C)c5ccccc5)cn4)CC3)c2cc1OC [Compound 59] | 100 to 1000 nM | 1.01 to 10 nM |  |
| COc1cc2ncnc(N3CCN(c4ncc(OCc5ccccc5)cn4)[C@H](C)C3)c2cc1OC [Compound 60] | 100 to 1000 nM | 10 to 100 nM |  |
| COc1cc2ncnc(N3CCN(c4ncc(OCc5cccc(C)c5)cn4)CC3)c2cc1OC [Compound 61] | 100 to 1000 nM | 10 to 100 nM |  |
| COc1cc2ncnc(N3CCN(c4ncc(OCc5ccc(C)cc5)cn4)CC3)c2cc1OC [Compound 62] | > 1000 nM | 10 to 100 nM | at least 100 times |
| COc1cc2ncnc(N3CCN(c4ncc(OC(C)c5ccccc5)cn4)CC3)c2cc1OC (centres unmarked) [Compound 63] | 100 to 1000 nM | 10 to 100 nM |  |
| COc1cc2ncnc(N3CCN(c4ncc(O[C@@H](C)c5ccccc5)cn4)CC3)c2cc1OC [Compound 64] | > 1000 nM | 10 to 100 nM |  |
| COc1cc2ncnc(N3CCN(c4ncc(OCc5ccccc5C)cn4)CC3)c2cc1OC [Compound 65] | > 1000 nM | 10 to 100 nM |  |
| COc1cc2ncnc(N3CCN(c4ncc(OCc5ccccc5)cn4)C(C)C3)c2cc1OC (centres unmarked) [Compound 66] | > 1000 nM | 10 to 100 nM |  |
| COc1cc2ncnc(N3CCN(c4ncc(OCc5ccccc5)cn4)C[C@H]3C)c2cc1OC [Compound 67] | > 1000 nM | > 100 nM | less than 5 times |
| COc1cc2ncnc(N3CCN(c4ncc(OCc5ccc(F)cc5)cn4)CC3)c2cc1OC [Compound 69] | 100 to 1000 nM | 10 to 100 nM |  |
| COc1cc2ncnc(N3CCN(c4ncc(Nc5ccc(Cl)cc5)cn4)CC3)c2cc1OC [Compound 70] | 100 to 1000 nM | 1.01 to 10 nM |  |
| COc1cc2ncnc(N3CCN(c4ncc(Nc5ccc(F)c(F)c5)cn4)CC3)c2cc1OC [Compound 71] | 100 to 1000 nM | 1.01 to 10 nM |  |
| COc1cc2ncnc(N3CCN(c4ncc(OCc5ccc(C#N)cc5)cn4)CC3)c2cc1OC [Compound 73] | > 1000 nM | > 100 nM | at least 100 times |
| COc1cc2ncnc(N3CCN(c4ncc(N5CCCc6ccccc65)cn4)CC3)c2cc1OC [Compound 74] | 100 to 1000 nM | 10 to 100 nM |  |
| COc1cc2ncnc(N3CCN(c4ncc(Cc5cccc(C(N)=O)c5)cn4)CC3)c2cc1OC [Compound 75] | 100 to 1000 nM | 1.01 to 10 nM |  |
| COc1cc2ncnc(N3CCN(c4ncc(NC(=O)Cc5ccccc5)cn4)CC3)c2cc1OC [Compound 76] | 100 to 1000 nM | 10 to 100 nM |  |
| COc1ccc(COc2cnc(N3CCN(c4ncnc5cc(OC)c(OC)cc45)CC3)nc2)cc1 [Compound 77] | > 1000 nM | 10 to 100 nM | at least 100 times |
| COc1cc2ncnc(N3CCN(c4ncc(S(=O)(=O)c5ccccc5)cn4)CC3)c2cc1OC [Compound 78] | > 1000 nM | 10 to 100 nM |  |
| COc1cc2ncnc(N3CCN(c4ncc(Cc5ccccc5)cn4)CC3)c2cc1OC1CCNC1 (centres unmarked) [Compound 80] | 11 to 100 nM | 1.01 to 10 nM |  |
| COc1cc2ncnc(N3CCN(c4ncc(Cc5ccc(C(C)(C)C)cc5)cn4)CC3)c2cc1OC [Compound 81] | > 1000 nM | 10 to 100 nM |  |
| COc1cc2ncnc(N3CCN(c4ncc(Nc5ccc(C(C)(C)C)cc5)cn4)CC3)c2cc1OC [Compound 82] | > 1000 nM | > 100 nM |  |
| COc1cc2ncnc(N3CCN(c4ncc(Cc5ccc(OC(F)F)cc5)cn4)CC3)c2cc1OC [Compound 86] | 100 to 1000 nM | 1.01 to 10 nM |  |

| SMILES | IC50 [1] | IC50 [2] | times more potent against the D816V mutant than against the wild-type Kit [2] |
| --- | --- | --- | --- |
| CN1CCC(COc2ccc3ncnc(N4CCN(c5ncc(Cc6ccccc6)cn5)CC4)c3c2)CC1 [Compound 87] | 100 to 1000 nM | 1.01 to 10 nM |  |
| COc1cc2ncnc(N3CCN(c4ncc(Cc5ccccc5)cn4)CC3)c2cc1OCC1CCNC1 (centres unmarked) [Compound 89] | 11 to 100 nM | < 1 nM |  |
| COc1cc2ncnc(N3CCN(c4ncc(Cc5ccccc5)cn4)CC3)c2cc1OCC1CN(C)C1 [Compound 90] | 11 to 100 nM | < 1 nM |  |
| COc1cc2ncnc(N3CCN(c4ncc(Cc5ccccc5)cn4)CC3)c2cc1OC1CCNCC1 [Compound 91] | 11 to 100 nM | 1.01 to 10 nM |  |
| COc1cc2ncnc(N3CCN(c4ncc(Cc5ccccc5)cn4)CC3)c2cc1OC1CCN(C)C1 (centres unmarked) [Compound 92] | 100 to 1000 nM | 1.01 to 10 nM |  |
| COc1cc2c(N3CCN(c4ncc(Cc5ccccc5)cn4)CC3)ncnc2cc1OCC1(C)COC1 [Compound 93] | 11 to 100 nM | 1.01 to 10 nM |  |
| COc1cc2ncnc(N3CCN(c4ncc(OCc5ccc(C(C)(C)C)cc5)cn4)CC3)c2cc1OC [Compound 94] | > 1000 nM | > 100 nM |  |
| CN1CCC(COc2ccc3ncnc(N4CCN(c5ncc(Cc6ccccc6)c(N)n5)CC4)c3c2)CC1 [Compound 95] | 11 to 100 nM | 1.01 to 10 nM |  |
| COc1cc2ncnc(N3CCN(c4ncc(Cc5ccccc5)cn4)CC3)c2cc1OCC1CCN(C)C1 (centres unmarked) [Compound 96] | 11 to 100 nM | < 1 nM |  |
| COc1cc2ncnc(N3CCN(c4ncc(Cc5ccccc5)cn4)CC3)c2cc1OCC1CCCNC1 (centres unmarked) [Compound 97] | 11 to 100 nM | < 1 nM |  |
| CN1CCC(COc2ccc3ncnc(N4CCN(c5ncc(Cc6ccccc6)c(=O)[nH]5)CC4)c3c2)CC1 [Compound 100] | 100 to 1000 nM | 1.01 to 10 nM |  |
| COc1cc2ncnc(N3CCN(c4ncc(Cc5cccc(OC(F)(F)F)c5)cn4)CC3)c2cc1OC [Compound 101] | 100 to 1000 nM | 10 to 100 nM |  |
| COc1cc2ncnc(N3CCN(c4ncc(OCc5ccc(C(F)(F)F)cc5)cn4)CC3)c2cc1OC [Compound 102, 6,7-dimethoxy-4-(4-(5-((4-(trifluoromethyl)benzyl)oxy)pyrimidin-2-yl)piperazin-1-yl)quinazoline] | > 1000 nM | > 100 nM |  |
| COc1cc2ncnc(N3CCN(c4ncc(OCc5cc(Cl)cc(Cl)c5)cn4)CC3)c2cc1OC [Compound 103] | > 1000 nM | > 100 nM |  |
| COc1cc2ncnc(N3CCN(c4ncc(Cc5ccccc5)cn4)CC3)c2cc1OC[C@H]1CNCCO1 [Compound 104] | 11 to 100 nM | < 1 nM |  |
| COc1cc2ncnc(N3CCN(c4ncc(Cc5ccccc5)cn4)CC3)c2cc1OC[C@@H]1CNCCO1 [Compound 106] | 11 to 100 nM | 1.01 to 10 nM |  |
| COc1cc2ncnc(N3CCN(c4ncc(Cc5ccccc5)cn4)CC3)c2cc1OCCN1CCCC1=O [Compound 110] | 11 to 100 nM | < 1 nM |  |
| COc1cc2ncnc(N3CCN(c4ncc(Cc5ccccc5)cn4)CC3)c2cc1OC[C@@H]1CCCN(C)C1 [Compound 113] | 11 to 100 nM | < 1 nM |  |
| COc1cc2ncnc(N3CCN(c4ncc(Cc5ccccc5)cn4)CC3)c2cc1OCC1CCCN(C)C1 (centres unmarked) [Compound 114] | 11 to 100 nM | < 1 nM |  |
| COc1cc2ncnc(N3CCN(c4ncc(Cc5ccccc5)cn4)CC3)c2cc1OC[C@H]1CCCN(C)C1 [Compound 115] | 11 to 100 nM | 1.01 to 10 nM |  |
| COc1cc2ncnc(N3CCN(c4ncc(Cc5ccccc5)cn4)CC3)c2cc1OCCN1CCNCC1 [Compound 116] | 11 to 100 nM | 1.01 to 10 nM |  |
| COc1cc2ncnc(N3CCN(c4ncc(Cc5ccccc5)cn4)CC3)c2cc1OCC1CN(C)CCO1 (centres unmarked) [Compound 117] | 11 to 100 nM | < 1 nM |  |
| COc1cc2ncnc(N3CCN(c4ncc(Cc5ccccc5)cn4)CC3)c2cc1OC1CCN(CCO)C1 (centres unmarked) [Compound 118] | 11 to 100 nM | 1.01 to 10 nM |  |
| COc1cc2ncnc(N3CCN(c4ncc(Cc5ccccc5)c(=O)[nH]4)CC3)c2cc1OC[C@H]1CNCCO1 [Compound 120] | < 10 nM | < 1 nM |  |
| COc1cc2ncnc(N3CC4CCC(C3)N4c3ncc(Cc4ccccc4)cn3)c2cc1OCC1CNCCO1 (centres unmarked) [Compound 121] | 11 to 100 nM | < 1 nM |  |
| CCOc1cc2ncnc(N3CCN(c4ncc(Cc5ccccc5)cn4)CC3)c2cc1OCC1CCN(C)CC1 [Compound 122] | < 10 nM | < 1 nM |  |
| COc1cc2ncnc(N3CCN(c4ncc(Cc5ccccc5)c(N)n4)CC3)c2cc1OC[C@@H]1CCCN(C)C1 [Compound 124] | < 10 nM | < 1 nM |  |
